Assay results: US20260325504A1, “Genetically Engineered Human Pituitary Corticotroph Tumor Organoids Exhibit Divergent Responses to Selective Glucocorticoid Receptor Modulators” (Corcept Therapeutics Incorporated, priority 2022, published 2026)
“Also recorded” adds a separate entry of the source.

How the values were obtained:
[1] = tested on: patients with Cushing's syndrome; conditions: cited from earlier work; for tumor regression / tumor growth: CD patients, pituitary macroadenomas/corticotroph tumors; for ACTH levels in patients / cortisol levels in patients: patients with Cushing's syndrome/CD
FKBP5 = FKBP5 expression (GR target gene, qRT-PCR) in PitNET organoids; type: cell-based, human; conditions: 48 h, FIG. 16A-C; for differential expression of FKBP5: PitNET organoids (iPSCctrl, iPSCUSP48MV, iPSCUSP8)
Procedure: Sonic Hedgehog (SHH) was withdrawn from the organoid growth media 16 hours prior to treatment. The experimental treatment groups included: vehicle (Veh), mifepristone (500 nM, Selleckchem S2606), GANT61 (5 μM, Stemcell Technologies 73692), ketoconazole (Keto, 10 μM, Selleckchem S1353), pasireotide (Pas, 100 nM, Target Mol TP2207-SB001), octreotide (Oct, 100 nM, Selleckchem P1017), mifepristone plus GANT61, mifepristone plus Keto, mifepristone plus Pas, relacorilant (500 nM, Corcept Therapeutics CORT125134), relacorilant plus Pas, relacorilant plus Oct, or dexamethasone (Dexa, 100 nM, SIGMA S4902). In the combination treatments, cultures were pretreated with the GANT61, Keto, Pas or Oct for 2 hours prior to treatment with mifepristone or Rela. PitNET tissue derived organoids hPITO36, hPITO37, hPITO38, hPITO39, and hPITO40 were treated with the following experimental conditions: Vehicle (1), pasireotide (2), relacorilant (3), relacorilant & pasireotide (4), mifepristone (5), mifepristone & pasireotide (6). The IC50 values used for each hPITO line for each drug were determined based on dose responses (FIG. 12). All organoid cultures were treated for 48 hours prior to analysis.
RNA was extracted from PitNET tissue or iPSC generated organoids using TRI Reagent® (Molecular Research Center Inc TR118) and the High Capacity cDNA Reverse Transcription Kit (Applied Biosystems, Foster City, CA) was used for cDNA synthesis of RNA following the recommended protocol. For each sample, 60 ng RNA was reverse transcribed to yield approximately […] total cDNA that was then used for the qRT-PCR. Pre-designed real-time polymerase chain reaction assays were purchased for the following genes: TPit (Thermo Fisher Scientific 4331182 Hs00193027), SF1 (Thermo Fisher Scientific 4331182 Hs00610436), SSTR2 (Thermo Fisher Scientific 4331182 Hs00265624_s1), SSTR5 (Thermo Fisher Scientific 4331182 Hs00990407_s1), POMC (Thermo Fisher Scientific 4331182 Hs01596743_ml), hPRT (Thermo Fisher Scientific 4331182 Hs02800695_ml), and FKBP5 (Thermo Fisher Scientific 4331182 Hs01561006_m1). Polymerase chain reaction amplifications were performed in a total volume of 20 μL containing 20× TaqMan Expression Assay primers, 2× TaqMan Universal Master Mix (Applied Biosystems, TaqMan® Gene Expression Systems), and cDNA template. Each polymerase chain reaction amplification was performed in triplicate wells in a StepOne Real-Time PCR System (Applied Biosystems) by using the following conditions: 500C 2 minutes, 95° C. […] Fold change was calculated as the following: (Ct-Ct high)=n target, 2ntarget/2nHPRT=fold change where Ct=threshold cycle. The results were expressed as average fold change in or differential gene expression relative to control, with HPRT used as an internal control according to Livak and Schmittgen.

SSTR5 = test: Spectral flow cytometry, SSTR5 positive cells, hPITOs; type: cell-based, human; conditions: hPITO, 48 h, FIGS. 9G
Description: 1.3 Generation and Culture of Human PitNET Tissue Organoids (hPITOs)
Patients undergoing planned transsphenoidal surgery for PitNETs were identified in the outpatient neuroendocrinology and neurosurgery clinics and collected by the St. Joseph's Hospital and Barrow Neurological Institute Biobank under the collection protocol PHXA-05TS038, and outcomes data protocol PHXA-0004-72-29 with approval of the Institutional Review Board (IRB) and patient consent. De-identified samples were shipped in collection and transport media (Table 3) to the Zavros laboratory (University of Arizona) for processing within 24 hours of collection. Resected PitNET tissues were washed with Dulbeccos Phosphate Buffered Saline (DPBS) supplemented with 1× Penicillin/Streptomycin, 1× Kanamycin and 1× Amphotericin/Gentamycin, minced into smaller pieces, and incubated with digestion buffer (Dulbecco's Modified Eagle Medium/Nutrient Mixture F-12 (DMEM/F12) supplemented with 0.4% Collagenase 2, 0.1% Hyaluronic Acid, 0.03% Trypsin). The tissue was incubated with Accutase (Thermo Fisher Scientific) for a further 5 minutes, and the cells were pelleted and washed with DPBS supplemented with antibiotics. Dissociated cells were then seeded as Matrigel™ domes in culture dishes and overlaid with growth media (Table 4). Media was replaced every 3 days and organoids were harvested for downstream experiments or passaged after 15 days of culture (FIG. 1B).
Sonic Hedgehog (SHH) was withdrawn from the organoid growth media 16 hours prior to treatment. […] The IC50 values used for each hPITO line for each drug were determined based on dose responses (FIG. 12). […]

Structure (SMILES) | tumor regression / tumor growth [1] | hyperglycemia secondary to hypercortisolism ([1]; patients with CD) | ACTH levels in patients [1] | cortisol levels in patients [1] | side effects ([1]; patients) | differential expression of FKBP5 (FKBP5) | percentage of SSTR5 positive cells (SSTR5) | tumor regression ([1]; macroadenomas, treated for three months, imaging of the pituitary gland) | effects of excess cortisol on hypertension and insulin resistance ([1]; phase 2 study, patients with Cushing's syndrome) | magnitude of FKBP5 inhibition, compared to mifepristone (FKBP5; PitNET organoids) | magnitude of SSTR5 induction, relacorilant vs mifepristone (SSTR5)
CC#C[C@]1(O)CC[C@H]2[C@@H]3CCC4=CC(=O)CCC4=C3[C@@H](c3ccc(N(C)C)cc3)C[C@@]21C [mifepristone, 11β-(4-dimethylaminophenyl)-17ß-hydroxy-17α-(1-propynyl)-estra-4,9-dien-3-one] | not been observed; also recorded: without tumor growth | significantly improves hyperglycemia | increases ACTH; also recorded: raises ACTH (and thus cortisol) levels | concomitant increase in cortisol secretion; also recorded: raises ACTH (and thus cortisol) levels | significant side effects in some patients; also recorded: endometrial thickening and vaginal bleeding | significantly reduced | significant increase | – | – | – | –
Cn1cc(S(=O)(=O)N2CCC3=Cc4c(cnn4-c4ccc(F)cc4)C[C@]3(C(=O)c3cc(C(F)(F)F)ccn3)C2)cn1 [relacorilant, (R)-(1-(4-fluorophenyl)-6-((1-methyl-1H-pyrazol-4-yl)sulfonyl)-4,4a,5,6,7,8-hexahydro-1H-pyrazolo[3,4-g]isoquinolin-4a-yl) (4-(trifluoromethyl)pyridin-2-yl) methanone] | induce tumor regression in some CD patients | – | did not significantly raise ACTH or cortisol levels | did not significantly raise ACTH or cortisol levels | – | significantly reduced | significant increase; also recorded: significantly upregulated | tumor regression in two patients | reversed the effects of excess cortisol on hypertension and insulin resistance | significantly greater | significantly greater than that of mifepristone
